Results published in patent publication US20090291857A1, “METHODS TO IDENTIFY INHIBITORS OF THE UNFOLDED PROTEIN RESPONSE” (THE BOARD OF TRUSTEES OF THE LELAND STANFORD JUNIOR …, priority 2006, published 2009).

How the values were obtained:
[1] = test system: XBP-luciferase reporter; experiment: In vivo bioluminescence imaging of XBP-luciferase tumor xenografts; set-up: species or system mouse
Experimental: HT1080 fibrosarcoma cells (2×10^6) stably expressing the XBP-luciferase reporter were implanted s.c. into severe combined immune deficient (SCID) mice. Ten minutes prior to imaging, mice were injected i.p. with D-luciferin (150 mg/kg) solubilized in PBS. Optical bioluminescence imaging was performed using the IVIS charged-coupled device camera system (Caliper Life Sciences, Hopkinton, Mass.). Mice were imaged for 1-4 minutes per acquisition scan. Signal intensities were analyzed using Living Image software (Caliper).
A. Irestatin 9389 impairs IREla activity in implanted tumor xenografts. Equal numbers (2×10^6) of XBP-luciferase or CMV-luciferase reporter cells were implanted s.c. into SCID mice. After one week, mice were treated with irestatin 9389 (50 mg/kg), followed by optical bioluminescence imaging. B. Inhibition of tumor growth by irestatin 9389. […] Tumor volumes were calculated based on caliper measurements taken every 3-5 days. Data points represent the mean volume calculated from at least 7 tumors per group, with SEM shown in one direction. […]
The increased sensitivity of irestatin-treated cells to hypoxic stress in vitro indicate that selective inhibition of IRE1α signaling could impact tumor growth. […] In contrast, XBP-1s was not detected in normal pancreas specimens (0/20), and infrequently observed in chronic pancreatitis (1/29) (FIG. 15). […]

[2] = test system: HT1080 s.c. tumor xenografts; assay type: in vivo; settings: 50 mg/kg i.p. every other day, 6 doses
Experimental: Female 4-6 week-old SCID (B6.CB17) mice supplied by Stanford University Animal Facility were housed in the same facility (American Association of Laboratory Animal Care-approved) with 12 hour light cycles. Food and water were provided ad libitum. All experiments were approved by the institutional care and use committee. The potential toxicities of irestatin 9389 were examined in SCID mice injected i.p. once daily over 4 consecutive days with increasing doses of irestatin 9389 or vehicle control. […] For xenografts, 2×10^6 HT1080 fibrosarcoma cells were resuspended in 50-75 μl PBS and injected s.c. in the dorsal flanks of host mice. When the implanted tumors reached a mean volume of ˜150 mm^3, mice were randomly assigned into different treatment groups. Mice were dosed by i.p. bolus injection with either vehicle (50% DMSO, 20% cremophor EL, 30% ethanol) or irestatin 9389 (50 mg/kg). Tumors (6-8 per group) were measured every 2-4 days with calipers. Tumor volume was calculated using the formula [(W^2×L) 0.52] where W=width and L=length.
A. Irestatin 9389 impairs IREla activity in implanted tumor xenografts. […] Tumor volumes were calculated based on caliper measurements taken every 3-5 days. Data points represent the mean volume calculated from at least 7 tumors per group, with SEM shown in one direction. […]

## Cc1csc(NC(=O)CSc2nc3c(c(C(F)(F)F)c2C#N)CCC3)n1 [Compound 9389]
[1]; SCID mice, single doses of 50-60 mg/kg
  duration of robust inhibition of the XBP-luciferase reporter after injection: 6 to 8 h
[1]; after treatment
  time at which XBP-luciferase signal returned to basal levels: ≤ 24 h
[2]
  antitumor effect: significant cytostatic antitumor effects
